Drawing on ChEMBL document CHEMBL1955855, “A domino Knoevenagel hetero-Diels-Alder reaction for the synthesis of polycyclic chromene derivatives and evaluation of their cytotoxicity” (Bioorg Med Chem Lett, 2012), this text covers IC50 for eleven molecules.

In general, IC50 refers to the midpoint of a concentration-inhibition curve.

Molecules are shown by their SMILES.

One assay concerns B16. Put plainly: Cytotoxicity against mouse B16 cells after 72 hrs by MTT assay. It counts as functional, cell-based. On the technique in general: Tetrazolium assays rely on reduction of a dye to a coloured formazan, in cell work by metabolically active cells.
The test system of a further assay is A549. Kind of assay: Cytotoxicity against human A549 cells after 72 hrs by MTT assay. It counts as functional, cell-based.
The mark [1] stands for this setting: Homo sapiens, A549, 72 h, read-out: IC50.
Setting [2] is: Mus musculus, B16, 72 h, read-out: IC50.

Consider `CC1(C)OC2=C(C(=O)c3ccccc32)[C@H]2C3=Cc4cc(Cl)ccc4O[C@@]3(C)CC[C@H]21`, for which the IC50 entry is “Not Active” in the assay with B16 (b16) and 26.3 µM with A549 (setting [1]).

On to `CC1(C)OC2=C(C(=O)CCC2)[C@H]2C3=Cc4ccccc4O[C@@]3(C)CC[C@H]21` (relative stereo), for which the figures for the IC50 in the assay with B16 (setting [2]) and with A549 (setting [1]) were 12.8 µM and 20.8 µM, respectively.

As to `CC1(C)CC(=O)C2=C(C1)OC(C)(C)[C@@H]1CC[C@]3(C)Oc4ccccc4C=C3[C@H]21` (relative stereo), the values for the IC50 with B16 (setting [2]) and in the assay with A549 (setting [1]) were 10.2 µM and 8.64 µM, respectively.

In the case of `Cn1c2c(c(=O)n(C)c1=O)[C@H]1C3=Cc4ccccc4O[C@@]3(C)CC[C@H]1C(C)(C)O2` (relative stereo), the values for the IC50 with B16 (setting [2]) and in the assay with A549 (setting [1]) were 8.47 µM and 3.8 µM, respectively.

Turning to `CC1(C)Oc2c(c(=O)oc3ccccc23)[C@H]2C3=Cc4ccccc4O[C@@]3(C)CC[C@H]21` (relative stereo), the IC50 with B16 (setting [2]) stood at 35.7 µM; in the assay on A549 (setting [1]), 9.58 µM.

As to `CC1(C)OC2=C(C(=O)CCC2)[C@H]2C3=Cc4cc(Cl)ccc4O[C@@]3(C)CC[C@H]21` (relative stereo), the IC50 in the assay on B16 (setting [2]) is 2 µM; in the assay with A549 (setting [1]), 4.01 µM.

With `Cn1c2c(c(=O)n(C)c1=O)[C@H]1C3=Cc4cc(Cl)ccc4O[C@@]3(C)CC[C@H]1C(C)(C)O2` (relative stereo), the IC50 with B16 (setting [2]) was 7.69 µM; in the assay on A549 (a549), “Not Active”.

With `CC1(C)Oc2c(c(=O)oc3ccccc23)[C@H]2C3=Cc4cc(Cl)ccc4O[C@@]3(C)CC[C@H]21` (relative stereo), the results for the IC50 with B16 (setting [2]) and in the assay on A549 (setting [1]) were 20.4 µM and 0.26 µM, respectively.

Regarding `CC1(C)OC2=C(C(=O)CCC2)[C@H]2C3=Cc4cc(Br)ccc4O[C@@]3(C)CC[C@H]21` (relative stereo), the figures for the IC50 in the assay with B16 (setting [2]) and in the assay with A549 (setting [1]) were 16.5 µM and 19.7 µM, respectively.

For the molecule `CC1(C)CC(=O)C2=C(C1)OC(C)(C)[C@@H]1CC[C@]3(C)Oc4ccc(Br)cc4C=C3[C@H]21` (relative stereo), the IC50 turned out to be 12.5 µM with B16 (setting [2]) and 6.13 µM with A549 (setting [1]).

In the case of `COc1cccc2c1C(=O)c1c(O)c3c(c(O)c1C2=O)C[C@@](O)(C(=O)CO)C[C@@H]3O[C@H]1C[C@H](N)[C@H](O)[C@H](C)O1` [DOXORUBICIN], the IC50 in the assay on B16 (setting [2]) and in the assay with A549 (setting [1]) was under 0.1 µM throughout.
